Data on nine compounds can be found in patent publication US20110065723A1, “COMPOSITIONS OF N-BENZYL-3-(4-CHLOROPHENYL)-2-[METHYL-[2-OXO-2-(3,4,5-TRIMETHOXYPHENYL)ACETYL]AMINO]-N-[3-(4-PYRIDYL)-1-[2-(4-PYRIDYL)ETHYL]PROPYL]PROPANAMIDE AND USES THEREOF” (priority 2009, published 2011).

For series [1], the system named is Mycobacterium tuberculosis Erdman strain (Mtb ATCC 35801). Description: Susceptibility testing (broth microdilution MIC) with or without TIM. Format: cell-based. The note with it: TIM 10 μg/ml. In general terms: In broth dilution the organism is exposed to a series of concentrations in liquid medium.
Series [2] concerns Mtb Erdman. Description: Mouse infection model (lung CFU). The conditions noted are these: mice, lungs; TIM 200, INH 25 mg/kg; 4 weeks; FIG. 4B; not to the same extent as RIF, statistically significant. The class given is in vivo, C57BL/6 mice.
The nature of series [3]: in vivo. The note with it: C57BL/6, mouse, po, 10 mg/kg; for AUC(0-inf): RIF AUCinf Plasma; for Cmax: RIF Cmax Plasma.
Series [4] concerns Mycobacterium tuberculosis Erdman strain in macrophages. Put plainly: Mtb-THP-1 macrophage infection screening assay. The class given is cell-based.
The mark [5] stands for this setting: RIF 10 mg/kg + TIM 200 mg/kg dosed 6 hours prior to RIF.

`NNC(=O)c1ccncc1` [Isoniazid, isoniazid]: in series [1], the “in vitro effect of TIM on the activity of the drug against Mtb” value (“in vitro effect of TIM” for short) is recorded as “no in vitro effect”. Moreover, in series [2], the “effect of TIM on activity in vivo” value was “does enhance INH activity in vivo”.
On to `CC(=O)NC[C@H]1CN(c2ccc(N3CCOCC3)c(F)c2)C(=O)O1` [Linezolid], for which the “in vitro effect of TIM” value in series [1] is reported as “no in vitro effect”.
A word on the AUC(0-inf): it is total exposure, with the tail of the curve extrapolated. The term Cmax denotes the highest concentration seen after dosing. As to `CO[C@H]1/C=C/O[C@@]2(C)Oc3c(C)c(O)c4c(O)c(c(/C=N/N5CCN(C)CC5)c(O)c4c3C2=O)NC(=O)/C(C)=C\C=C\[C@H](C)[C@H](O)[C@@H](C)[C@@H](O)[C@@H](C)[C@H](OC(C)=O)[C@@H]1C` [RIF, rifampicin], the AUC(0-inf) in series [3] (setting [5]) is 153 µg·h/mL; in series [3] (RIF 10 mg/kg alone), 152 µg·h/mL. The Cmax was found to be 14900 ng/mL in series [3] (setting [5]) and 19800 ng/mL in series [3] (RIF 10 mg/kg alone). Further, the “Log10 CFU” value in series [4] (Drug conc. 0.04 ug/mL) came to 4.71 Log10 CFU; in series [4] (Drug conc. 0.1 ug/mL) it was 4.47 Log10 CFU; in series [4] (Drug conc. 0.4 ug/mL), 4.58 Log10 CFU; in series [4] (Drug conc. 1.1 ug/mL), 3.98 Log10 CFU; in series [4] (Drug conc. 3.3 ug/mL), 1.94 Log10 CFU; in series [4] (Drug conc. 10 ug/mL), 2.12 Log10 CFU. For the same compound, the “Log10 CFU” value in series [4] (Drug conc. 30 ug/mL) came to 1.10 Log10 CFU.
On to `CO[C@H]1/C=C/O[C@@]2(C)Oc3c(C)c(O)c4c(O)c(c(/C=N/N5CCN(C6CCCC6)CC5)c(O)c4c3C2=O)NC(=O)/C(C)=C\C=C\[C@H](C)[C@H](O)[C@@H](C)[C@@H](O)[C@@H](C)[C@H](OC(C)=O)[C@@H]1C` [Rifapentine, rifapentine], for which the “in vitro effect of TIM” value in series [1] is “no in vitro effect”.
In the case of `COc1nc2ccc(Br)cc2cc1[C@@H](c1ccccc1)[C@@](O)(CCN(C)C)c1cccc2ccccc12` [TMC-207], the “potentiating effect of TIM on the activity against Mtb” value in series [1] (MIC without vs with TIM) worked out at 15 fold.
In the case of `CC(=O)NC[C@H]1CN(c2ccc(N3CCSCC3)c(F)c2)C(=O)O1` [U-100480], the “in vitro effect of TIM” value in series [1] is recorded as “no in vitro effect”.
On to `CCc1cc(C(N)=S)ccn1` [ethionamide], for which the “in vitro effect of TIM” value in series [1] is given as “no in vitro effect”.
On to `COc1c(N2CCNC(C)C2)c(F)cc2c(=O)c(C(=O)O)cn(C3CC3)c12` (centres unmarked) [gatifloxacin], for which the “in vitro effect of TIM” value in series [1] is listed as “no in vitro effect”.
On the same count and under the same terms, as for acriflavin, the entry is “no in vitro effect”.
